Each structure is given as a SMILES string. Bridge positions count the residues as written; N and C are the ends. Square brackets hold non-standard residues; d marks the D form. Peptide text beside a SMILES is read from it. * marks the point of attachment. ξ: configuration not given here. Phe(3-CF3) = N[C@@H](Cc1cccc(C(F)(F)F)c1)C(=O)O; Phe(4-CONH2) = NC(=O)c1ccc(C[C@H](N)C(=O)O)cc1; Phe(4-COOH) = N[C@@H](Cc1ccc(C(=O)O)cc1)C(=O)O; Bip = N[C@@H](Cc1ccc(-c2ccccc2)cc1)C(=O)O; NH(CH2)14COOH = O=C(O)CCCCCCCCCCCCCCN*; Phe(3-Me) = Cc1cccc(C[C@H](N)C(=O)O)c1; Val(3-OH) = CC(C)(O)[C@H](N)C(=O)O; Val(3-F) = CC(C)(F)[C@H](N)C(=O)O; Cha = N[C@@H](CC1CCCCC1)C(=O)O; Cit = NC(=O)NCCC[C@H](N)C(=O)O; Ile(3ξ) = CCC(C)[C@H](N)C(=O)O; dCha = N[C@H](CC1CCCCC1)C(=O)O; Thr(3ξ) = CC(O)[C@H](N)C(=O)O; PEG4 = NCCOCCOCCOCCOCCC(=O)O; dDab = NCC[C@@H](N)C(=O)O; Carboxymethyl = O=C(O)C*; Orn = NCCC[C@H](N)C(=O)O; Aun = NCCCCCCCCCCC(=O)O; Dab = NCC[C@H](N)C(=O)O; Dap = NC[C@H](N)C(=O)O; AEEA = NCCOCCOCC(=O)O

This experiment deals with T1, PD-1/PD-L1 interaction (PE-labeled human PD-L1-Ig binding to Jurkat cell line over-expressing human PD-1) (Homo sapiens, UniProt Q15116).
T1 construct: expressed in transfected cells; host or cells: Jurkat
T1 sequence (Q15116 25-288): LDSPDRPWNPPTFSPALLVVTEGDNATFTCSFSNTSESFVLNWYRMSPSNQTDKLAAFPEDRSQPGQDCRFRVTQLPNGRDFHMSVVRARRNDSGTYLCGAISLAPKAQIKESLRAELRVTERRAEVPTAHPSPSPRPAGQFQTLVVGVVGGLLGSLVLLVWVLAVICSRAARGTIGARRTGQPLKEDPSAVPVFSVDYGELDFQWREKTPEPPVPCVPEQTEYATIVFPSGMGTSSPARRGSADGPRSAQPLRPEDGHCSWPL
Nature of the experiment: Jurkat-PD-1 Cell Binding High-Content Screening Assay (CBA). The experiment is classed as cell-based. To be noted: Jurkat cell line over-expressing human PD-1; PE-labeled PD-L1-Ig 20 nM final; read-out: Jurkat hPD1-PDL1 IC50. The method, boiled down:
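Jurkat-hPD-1 cells, DMEM/10% FCS; cpd 2 h 37° C; PE-PD-L1-Ig 20 nM final, 1 h; 4% PFA fix + Hoechst 33342, 3× dPBS wash; high-content imaging read-out.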
In general, IC50 refers to the point on the concentration scale where inhibition reaches its midpoint. In the case of `CC(=O)NCCCC[C@@H]1NC(=O)[C@H](C(C)C)NC(=O)[C@H](CC2CCCCC2)NC(=O)[C@H](CCN)NC(=O)[C@@H](CC(C)C)NC(=O)[C@H](CCCN)NC(=O)[C@H](Cc2ccc(O)cc2)NC(=O)[C@H](Cc2ccc(-c3ccccc3)cc2)NC(=O)[C@H](C(C)C)NC(=O)[C@H](Cc2c[nH]c3ccccc23)NC(=O)[C@H](CC(=O)O)NC(=O)[C@H](Cc2ccc(C(=O)O)cc2)NC(=O)[C@H](Cc2ccc(OCC(=O)O)cc2)NC(=O)CSC[C@@H](C(=O)N[C@H](CCN)C(=O)NCCCCCCCCCCC(=O)O)NC1=O` [Compound 3404] ({CH2CO}-Y(Carboxymethyl)[Phe(4-COOH)]DWV[Bip]Y[Orn][dL][Dab][Cha]VK(Ac)C[dDab][Aun]-OH; thioether N-14), the IC50 was found to be 15 nM.
The value for `Cc1cccc(C[C@@H]2NC(=O)[C@H](CC(=O)O)NC(=O)[C@H](Cc3ccc(OCC(=O)O)cc3)NC(=O)[C@H](CN)NC(=O)CSC[C@@H](C(=O)N[C@@H](CCN)C(=O)NCCOCCOCC(=O)NCCCCCCCCCCC(=O)O)NC(=O)[C@H](CCCN)NC(=O)[C@H](C(C)C)NC(=O)[C@H](CC3CCCCC3)NC(=O)[C@H](CCN)NC(=O)[C@@H](CC(C)C)NC(=O)[C@H](CCCN)NC(=O)[C@H](Cc3ccc(OCC(=O)O)cc3)NC(=O)[C@H](Cc3ccc(-c4ccccc4)cc3)NC(=O)[C@H](Cc3ccc(OCC(=O)O)cc3)NC2=O)c1` [Compound 2860] ({CH2CO}-[Dap]Y(Carboxymethyl)D[Phe(3-Me)]Y(Carboxymethyl)[Bip]Y(Carboxymethyl)[Orn][dL][Dab][Cha]V[Orn]C[Dab][AEEA][Aun]-OH; thioether N-14) was 11.2 nM; that for `Cc1cccc(C[C@@H]2NC(=O)[C@H](CC(=O)O)NC(=O)[C@H](Cc3ccc(OCC(=O)O)cc3)NC(=O)[C@H](CN)NC(=O)CSC[C@@H](C(=O)N[C@@H](CCN)C(=O)NCCOCCOCC(=O)NCCCCCCCCCCC(=O)O)NC(=O)[C@H](CCCN)NC(=O)[C@H](C(C)C)NC(=O)[C@H](CC3CCCCC3)NC(=O)[C@H](CCN)NC(=O)[C@@H](CC(C)C)NC(=O)[C@H](CCCN)NC(=O)[C@H](Cc3ccc(O)cc3)NC(=O)[C@H](Cc3ccc(-c4ccccc4)cc3)NC(=O)[C@H](C(C)C)NC2=O)c1` [Compound 2588] ({CH2CO}-[Dap]Y(Carboxymethyl)D[Phe(3-Me)]V[Bip]Y[Orn][dL][Dab][Cha]V[Orn]C[Dab][AEEA][Aun]-OH; thioether N-14) was 5.3 nM.
Take `CC(C)C[C@H]1NC(=O)[C@H](CCN)NC(=O)[C@H](Cc2ccc(O)cc2)NC(=O)[C@H](Cc2ccc(-c3ccccc3)cc2)NC(=O)[C@H](C(C)C)NC(=O)[C@H](Cc2c[nH]c3ccccc23)NC(=O)[C@H](CC(=O)O)NC(=O)[C@H](Cc2ccc(OCC(=O)O)cc2)NC(=O)[C@H](CCCNC(=N)N)NC(=O)CSC[C@@H](C(=O)N[C@@H](CCCN)C(=O)NCCCCCCCCCCC(=O)O)NC(=O)[C@@H](CCC(N)=O)NC(=O)[C@H](C(C)C)NC(=O)[C@H](CC2CCCCC2)NC(=O)[C@H](CCN)NC1=O` [Compound 2817] ({CH2CO}-RY(Carboxymethyl)DWV[Bip]Y[Dab][dL][Dab][Cha]V[dQ]C[Orn][Aun]-OH; thioether N-14): the IC50 stood at 47.1 nM.
For `CC(C)C[C@H]1NC(=O)[C@H](CCCN)NC(=O)[C@H](Cc2ccc(C(=O)O)cc2)NC(=O)[C@H](Cc2ccc(-c3ccccc3)cc2)NC(=O)[C@H](Cc2ccc(C(=O)O)cc2)NC(=O)[C@H](Cc2cccc(C(F)(F)F)c2)NC(=O)[C@H](CC(=O)O)NC(=O)[C@H](Cc2ccc(OCC(=O)O)cc2)NC(=O)[C@H](C)NC(=O)CSC[C@@H](C(=O)N[C@@H](CCN)C(=O)NCCOCCOCCOCCOCCC(=O)NCCCCCCCCCCCCCCC(=O)O)NC(=O)[C@H](Cc2c[nH]cn2)NC(=O)[C@H](C(C)(C)O)NC(=O)[C@H](CC2CCCCC2)NC(=O)[C@H](CCN)NC1=O` [Compound 2954] ({CH2CO}-AY(Carboxymethyl)D[Phe(3-CF3)][Phe(4-COOH)][Bip][Phe(4-COOH)][Orn][dL][Dab][Cha][Val(3-OH)]HC[Dab][PEG4]-{NH(CH2)14COOH}; thioether N-14) the value was 264 nM.
For `Cc1cccc(C[C@@H]2NC(=O)[C@H](CC(=O)O)NC(=O)[C@H](Cc3ccc(OCC(=O)O)cc3)NC(=O)[C@H](CCCNC(=N)N)NC(=O)CSC[C@@H](C(=O)N[C@@H](CCN)C(=O)NCCCCCCCCCCC(=O)O)NC(=O)[C@H]([C@@H](C)O)NC(=O)[C@H](C(C)C)NC(=O)[C@H](CC3CCCCC3)NC(=O)[C@H](CCN)NC(=O)[C@@H](CC(C)C)NC(=O)[C@H](CCCN)NC(=O)[C@H](CCCNC(N)=O)NC(=O)[C@H](Cc3ccc(-c4ccccc4)cc3)NC(=O)[C@H](C(C)(C)F)NC2=O)c1` [Compound 2124] ({CH2CO}-RY(Carboxymethyl)D[Phe(3-Me)][Val(3-F)][Bip][Cit][Orn][dL][Dab][Cha]VTC[Dab][Aun]-OH; thioether N-14) the value was 17.3 nM; for `CCC(C)[C@@H]1NC(=O)[C@H](Cc2ccc(-c3ccccc3)cc2)NC(=O)[C@H](C(C)C)NC(=O)[C@H](Cc2c[nH]c3ccccc23)NC(=O)[C@H](CC(=O)O)NC(=O)[C@H](Cc2ccc(OCC(=O)O)cc2)NC(=O)[C@H](CO)NC(=O)CSC[C@@H](C(=O)N[C@@H](CCCN)C(=O)NCCCCCCCCCCC(=O)O)NC(=O)[C@H](C(C)O)NC(=O)[C@H](C(C)C)NC(=O)[C@H](CC2CCCCC2)NC(=O)[C@H](CCN)NC(=O)[C@@H](CC(C)C)NC(=O)[C@H](CCCN)NC1=O` (stereo partly drawn) [Compound 3099] ({CH2CO}-SY(Carboxymethyl)DWV[Bip][Ile(3ξ)][Orn][dL][Dab][Cha]V[Thr(3ξ)]C[Orn][Aun]-OH; thioether N-14), 19.1 nM; for `Cc1cccc(C[C@@H]2NC(=O)[C@H](CC(=O)O)NC(=O)[C@H](Cc3ccc(OCC(=O)O)cc3)NC(=O)[C@H](CCN)NC(=O)CSC[C@@H](C(=O)N[C@@H](CCN)C(=O)NCCOCCOCC(=O)NCCOCCOCC(=O)NCCOCCOCC(=O)NCCCCCCCCCCCCCCC(=O)O)NC(=O)[C@H](Cc3c[nH]cn3)NC(=O)[C@H](C(C)(C)O)NC(=O)[C@H](CC3CCCCC3)NC(=O)[C@H](CCN)NC(=O)[C@@H](CC(C)C)NC(=O)[C@H](CCCN)NC(=O)[C@H](Cc3ccc(C(=O)O)cc3)NC(=O)[C@H](Cc3ccc(-c4ccccc4)cc3)NC(=O)[C@H](Cc3ccc(C(N)=O)cc3)NC2=O)c1` [Compound 3761] ({CH2CO}-[Dab]Y(Carboxymethyl)D[Phe(3-Me)][Phe(4-CONH2)][Bip][Phe(4-COOH)][Orn][dL][Dab][Cha][Val(3-OH)]HC[Dab][AEEA][AEEA][AEEA]-{NH(CH2)14COOH}; thioether N-14), 36.8 nM.
For the compound `Cc1cccc(C[C@@H]2NC(=O)[C@H](CC(=O)O)NC(=O)[C@H](Cc3ccc(OCC(=O)O)cc3)NC(=O)[C@H](CN)NC(=O)CSC[C@@H](C(=O)N[C@@H](CCCCN)C(=O)NCCCCCCCCCCC(=O)O)NC(=O)[C@H](CN)NC(=O)[C@H](C(C)C)NC(=O)[C@H](CC3CCCCC3)NC(=O)[C@H](CCN)NC(=O)[C@@H](CC3CCCCC3)NC(=O)[C@H](CCCN)NC(=O)[C@H](C(C)C)NC(=O)[C@H](Cc3ccc(-c4ccccc4)cc3)NC(=O)[C@H](C(C)C)NC2=O)c1` [Compound 2686] ({CH2CO}-[Dap]Y(Carboxymethyl)D[Phe(3-Me)]V[Bip]V[Orn][dCha][Dab][Cha]V[Dap]CK[Aun]-OH; thioether N-14), the IC50 amounted to 16.1 nM.
